Experimental data from EP0495091B1 (Metabasis Therapeutics Inc., priority 1990, dated 1992).
Where “and” joins values, the source holds several entries; their conditions need not be identical. Equal values may be shown once. Read-outs that look alike come from different tables or passages of the source.

Legend:
[1] = molecular target: T1, NBTI-specific adenosine transport site (Homo sapiens, UniProt Q99808); test: [3H]-NBTI binding assay; conditions: 50% displacement of bound [3H]-NBTI (0.5 nM); neuronal membrane protein, 30 minutes, pH 7.4, room temperature; read-out: ED50 (the source's name)
T1 construct: incubated for 30 minutes with 0.5 mg neuronal membrane protein together with 0.5 nM [^3H]-NBTI; from tissue
T1 sequence (Q99808 1-456): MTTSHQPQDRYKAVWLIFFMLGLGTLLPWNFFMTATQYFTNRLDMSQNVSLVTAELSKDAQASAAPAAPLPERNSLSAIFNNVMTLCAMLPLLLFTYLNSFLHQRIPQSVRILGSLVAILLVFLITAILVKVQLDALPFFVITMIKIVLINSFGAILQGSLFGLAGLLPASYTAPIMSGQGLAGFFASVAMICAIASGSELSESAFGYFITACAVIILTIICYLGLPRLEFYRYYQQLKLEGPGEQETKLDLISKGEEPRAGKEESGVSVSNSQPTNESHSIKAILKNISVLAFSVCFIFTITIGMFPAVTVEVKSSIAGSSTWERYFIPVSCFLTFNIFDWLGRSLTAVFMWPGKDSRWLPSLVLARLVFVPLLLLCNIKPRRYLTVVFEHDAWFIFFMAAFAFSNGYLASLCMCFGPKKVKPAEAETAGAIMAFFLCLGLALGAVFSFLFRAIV
Experimental: Increasing concentrations of the test compounds were incubated for 30 minutes with 0.5 mg neuronal membrane protein together with 0.5 nM [^3H]-NBTI in a Tris buffer (pH 7.4) at room temperature. The assays were quenched and membranes collected by rapid filtration. Filters were then solubilized and radioactivity determined by scintillation counting.

[2] = system: platelet aggregation in human whole blood; test: Inhibition of platelet aggregation in human whole blood; assay type: cell-based; conditions: 10 minutes at 37°C, 10 µM adenosine added 5 minutes before, ADP (6-25 µM) induced, impedance technique
Experimental: Whole blood was drawn from healthy donors and collected in 0.1 vol. of sodium citrate to prevent coagulation. Platelet aggregation was measured by the impedance technique using a Whole Blood Aggregometer.

[3] = system: longitudinal muscle from the guinea pig ileum; test: Inhibition of stimulated contraction in isolated ileum
Experimental: Parallel platinum electrodes were used to deliver electrical current at 1 minute intervals at a voltage adequate to induce contraction of 90% of maximal.

Isolated rat hearts = test: Improved functional recovery in isolated hearts (Langendorff, post-ischemic LVDP); conditions: 30 min ischemia, 30 min reperfusion, number in brackets = hearts
Experimental: Isolated rat hearts were cannulated via the ascending aorta and attached to a perfusion apparatus according to the method of Langendorff. The hearts were perfused at a constant pressure of 100 cm of H2O with a modified Krebs-Henseleit buffer (pH 7.4) at 37°C. As a measure of heart function, left ventricular developed pressure (LVDP) was continuously monitored. Following equilibration of the hearts for a period of 30 min., the hearts were subjected to reduced flow i.e. ischemia, by reducing the pressure to 10 cm of H2O for 30 min. Flow was then restored by returning the pressure to its original level (100 cm of H2O) for a further 30 min.

[4] = system: coronary endothelial cells; test: Inhibition of adenosine utilization in cell culture; assay type: cell-based; conditions: for inhibition at 5 µM / inhibition at 50 µM: Endothelial cell, read-out: Inhibition of Adenosine Utilization (%); for Inhibition of Adenosine Utilization (%): 1 µM [3H] adenosine, 15 minutes
Experimental: Inhibition of adenosine utilization was determined by measuring the concentration of extracellular adenosine by scintillation counting following separation by thin layer chromatography (TLC).

[5] = Oral bioavailability and half-life in fasted adult beagles; conditions: dog, in vivo
Experimental: Heparinized blood and urine were collected at selected intervals over 24 hours. Each sample was chilled, centrifuged at 4°C and frozen prior to HPLC analysis.

Anesthetized male dogs = assay type: in vivo; conditions: n = 6
Experimental: Anesthetized male dogs were instrumented to measure regional myocardial wall thickening during right atrial pacing in the presence of a stenosis of the left anterior descending artery (Young & Mullane Am. J. Physiol. in press (1991)). In Table XIA, the effects on wall thickening and arterial pressure of six repeated episodes of pacing in animals treated with a continuous IV infusion of 50 µg/kg/min of the test compound administered post-pace #1 are compared with saline-treated control animals. […]

[6] = concentration which inhibited electrically stimulated contraction by 50%, read-out: IC50
[7] = Cavia porcellus, concentration which inhibited electrically stimulated contraction by 50%, read-out: IC50

| Structure (SMILES) | EC50 [1] [µM] | IC50 ([2]; Homo sapiens, Platelet) [µM] | IC50 ([3]; Cavia porcellus) [µM] | inhibition at 5 µM [4] [%] | inhibition at 50 µM [4] [%] | other results |
| --- | --- | --- | --- | --- | --- | --- |
| NC(=O)c1nc(Sc2ccccc2)n([C@@H]2O[C@H](CO)[C@@H](O)[C@H]2O)c1N [Compound No. 43, 5-Amino-2-thiophenyl-1-β-D-ribofuranosylmidazole-4-carboxamide] | 71 | 620 | 200 |  |  |  |
| Nc1c(C(=O)SCc2ccc([N+](=O)[O-])cc2)ncn1[C@@H]1O[C@H](CO)[C@@H](O)[C@H]1O | 0.5 |  | 10 | 17 ± 3 | 19 ± 2 | Function Recovery % Baseline LVDP (% of hearts) (Isolated rat hearts; 1 µM in perfusion buffer): 74.0±2.8 (6) % |
| Nc1c(C(=O)NCc2ccc(Br)cc2)ncn1[C@@H]1O[C@H](CO)[C@@H](O)[C@H]1O [Compound No. 56, 5-Amino-1-β-D-ribofuranosyl-imidazole-4-N-[(4-bromophenyl)methyl]carboxamide] | 32 | 75 |  | 55 ± 7 | 65 ± 9 |  |
| COc1ccc(CNC(=O)c2ncn([C@@H]3O[C@H](CO)[C@@H](O)[C@H]3O)c2N)cc1 [Compound No. 39, 5-Amino-1-β-D-ribofuranosyl-imidazole-4-N-(p-methoxybenzyl)carboxamide] | 600 |  | 500 | 7 ± 4 | 29 ± 1 |  |
| Nc1c(C(=O)NCCc2ccc([N+](=O)[O-])cc2)ncn1[C@@H]1O[C@H](CO)[C@@H](O)[C@H]1O [Compound No. 59] | 2 | 70 |  |  |  | Function Recovery % Baseline LVDP (% of hearts) (Isolated rat hearts; 1 µM in perfusion buffer): 75.8±2.2 (7) % |
| NC(=O)c1nc(S)n([C@@H]2O[C@H](CO)[C@@H](O)[C@H]2O)c1N [Compound No. 27, 5-amino-2-thio-1-β-D-ribofuranosyl imidazole-4-carboxamide] | 344 | 950 | 500 |  |  | Function Recovery % Baseline LVDP (% of hearts) (Isolated rat hearts; 5 µM in perfusion buffer): 74.6±3.7 (7) % |
| Nc1c(C(=O)NCc2ccc(Cl)cc2)ncn1[C@@H]1O[C@H](CO)[C@@H](O)[C@H]1O [Compound No. 29, 5-amino-1-β-D-ribofuranosylimidazole-4-N-[(4-Chlorophenyl)methyl]carboxamide] | 100 | 90 | 60 | 41 ± 11 | 67 ± 8 | Function Recovery % Baseline LVDP (% of hearts) (Isolated rat hearts; 1 µM in perfusion buffer): 76.7±2.9 (7) % |
| NC[C@H]1O[C@@H](n2cnc(C(=O)NCc3ccc([N+](=O)[O-])cc3)c2N)[C@H](O)[C@@H]1O [Compound No. 72] |  |  |  |  |  | IC50 [2]: 300 µM |
| C[C@H]1O[C@@H](n2cnc(C(=O)NCc3ccc(Cl)cc3)c2N)[C@H](O)[C@@H]1O [Compound No. 61, 5-Amino-1-(5-deoxy-β-D-ribofuranosyl) imidazole-4N-[(4-chlorophenyl)methyl]carboxamide] | 32 | 171 |  | 37 ± 28 | 72 ± 5 |  |
| NC(=O)c1ncn([C@@H]2O[C@H](CCl)[C@@H](O)[C@H]2O)c1N [Compound No. 26, 5-amino-1-(5-chloro-5-deoxy-β-D-ribofuranosyl) imidazole-4-carboxamide] |  |  |  |  |  | Function Recovery % Baseline LVDP (% of hearts) (Isolated rat hearts; 5 µM in perfusion buffer): 70.7±4.1 (8) %; IC50 [3, 6]: 200 µM |
| Nc1c(C(=O)NCc2ccc([N+](=O)[O-])cc2)ncn1[C@@H]1O[C@H](CO)[C@@H](O)[C@H]1O [Compound No. 23, 5-Amino-1-β-D-ribofuranosyl-imidazole-4-N-[(4-nitrophenyl)methyl]carboxamide] | 3 | 38 | 3 | 27 ± 4 | 63 ± 2 | Function Recovery % Baseline LVDP (% of hearts) (Isolated rat hearts; 1 µM in perfusion buffer): 79.0±2.3 (6) % |
| NC[C@H]1O[C@@H](n2cnc(C(N)=O)c2N)[C@H](O)[C@@H]1O [Compound No. 21, 5'-Amino-5'-deoxy-AICA-riboside] |  |  |  |  |  | bioavailability ([5]; po, fasted adult beagles, 10 mg/kg IV bolus and 20 mg/kg solution via stomach tube, read-out: Absolute Oral Bioavailability %): 71%; half-life ([5]; fasted adult beagles): 1.3 h; Function Recovery % Baseline LVDP (% of hearts) (Isolated rat hearts; 1 µM in perfusion buffer): 77.0±4.4 (10) %; Function Recovery % Baseline LVDP (% of hearts) (Isolated rat hearts; 5 µM in perfusion buffer): 81.0±3.2 (8) %; IC50 [3, 7]: 800 µM |
| CCCCO[C@@H]1[C@H](O)[C@@H](CO)O[C@H]1n1cnc(C(N)=O)c1N [Compound No. 32, 5-amino-1-(2-O-n-butyl-β-D-ribofuranosyl) imidazole-4-carboxamide] |  | 350 |  |  |  | IC50 [3, 7]: 100 µM |
| Cl.NC[C@H]1O[C@@H](n2cnc(C(=O)NCc3ccc(Cl)cc3)c2N)[C@H](O)[C@@H]1O [Compound No. 53, 5-Amino-1-(5-amino-5-deoxy-β-D-ribofuranosyl)imidazole-4-N-[(4-chlorophenyl)methyl]carboxamide Hydrochloride] | ~100 |  |  |  |  | Half Life [5]: 5.61 h; Absolute Oral Bioavailability % ([5]; po): 53 (1-468) 32%; IC50 [2]: 150 µM; Function Recovery % Baseline LVDP (% of hearts) (Isolated rat hearts; 5 µM in perfusion buffer): 85.6±1.8 (10) %; IC50 [3, 6]: 70 µM; % of NON-ISCHEMIC WALL THICKENING (Anesthetized male dogs; Pace # 1 (infusion started post-pace #1)): 49.5 ± 6.5%; % of NON-ISCHEMIC WALL THICKENING (Anesthetized male dogs; Pace # 2, continuous IV infusion of 50 µg/kg/min): 46.7 ± 7.0%; % of NON-ISCHEMIC WALL THICKENING (Anesthetized male dogs; Pace # 3, continuous IV infusion of 50 µg/kg/min): 54.2 ± 9.4 %; % of NON-ISCHEMIC WALL THICKENING (Anesthetized male dogs; Pace # 4, continuous IV infusion of 50 µg/kg/min): 48.1 ± 7.6 %; % of NON-ISCHEMIC WALL THICKENING (Anesthetized male dogs; Pace # 5, continuous IV infusion of 50 µg/kg/min): 47.5 ± 8.2 %; % of NON-ISCHEMIC WALL THICKENING (Anesthetized male dogs; Pace # 6, continuous IV infusion of 50 µg/kg/min): 42.1 ± 7.0 %; Inhibition of Adenosine Utilization (%) ([4]; 5 µM test compound): 34 ± 4%; Inhibition of Adenosine Utilization (%) ([4]; 50 µM test compound): 58 ± 2% |
| [N-]=[N+]=NC[C@H]1O[C@@H](n2cnc(C(=O)NCc3ccc([N+](=O)[O-])cc3)c2N)[C@H](O)[C@@H]1O [Compound No. 71, 5-Amino-1-(5-azido-5-deoxy-B-D-ribofuranosyl)imidazole-4-N-[(4-nitrophenyl)methyl]carboxamide] |  |  |  |  |  | IC50 [2]: 40 µM; Inhibition of Adenosine Utilization (%) ([4]; 5 µM test compound): 10 ± 3%; Inhibition of Adenosine Utilization (%) ([4]; 50 µM test compound): 31 ± 11% |
| Nc1c(C(=O)NCc2cccc([N+](=O)[O-])c2)ncn1[C@@H]1O[C@H](CO)[C@@H](O)[C@H]1O [Compound No. 28, 5-amino-1-β-D-ribofuranosylimidazole-4-N-[(3-nitrophenyl)methyl]carboxamide] | 15 | 180 |  | 17 ± 3 | 47 ± 2 |  |
| Cc1ccc(CNC(=O)c2ncn([C@@H]3O[C@H](CO)[C@@H](O)[C@H]3O)c2N)cc1 [Compound No. 30, 5-amino-1-β-D-ribofuranosylimidazole-4-N-[(4-methylphenyl)methyl]carboxamide] | 225 |  | 20 | 21 ± 1 | 49 ± 4 |  |
| Nc1c(C(=O)NCc2ccc(Cl)cc2Cl)ncn1[C@@H]1O[C@H](CO)[C@@H](O)[C@H]1O [Compound No. 25, 5-amino-1-β-D-ribofuranosylimidazole-4-N-[(2,4-dichlorophenyl)methyl]carboxamide] | 72 |  | 20 | 21 ± 1 | 56 ± 2 | Function Recovery % Baseline LVDP (% of hearts) (Isolated rat hearts; 5 µM in perfusion buffer, listed as 25 (1-360)): 86.8±2.3 (6) % and 72.4±1.6 (6) % |
